Measured values as given in patent publication US9765067B2, “Thiophen-2-yl-pyridin-2-yl-1H-pyrazole-4-carboxylic acid derivatives and the use thereof as soluble guanylate cyclase activators” (Novartis AG, priority 2014, dated 2017).
Values joined by “and” are separate entries in the source; they are usually repeats but may differ in a detail not shown here. Equal entries are not always repeated.

Biological target: T1, soluble guanylate cyclase (human GUCYA3/GUCYB3) overexpressed in CHO cells (Homo sapiens, UniProt Q02108+Q02153)
T1 construct: expressed in transfected cells
T1 sequence (Q02108 1-690 partner): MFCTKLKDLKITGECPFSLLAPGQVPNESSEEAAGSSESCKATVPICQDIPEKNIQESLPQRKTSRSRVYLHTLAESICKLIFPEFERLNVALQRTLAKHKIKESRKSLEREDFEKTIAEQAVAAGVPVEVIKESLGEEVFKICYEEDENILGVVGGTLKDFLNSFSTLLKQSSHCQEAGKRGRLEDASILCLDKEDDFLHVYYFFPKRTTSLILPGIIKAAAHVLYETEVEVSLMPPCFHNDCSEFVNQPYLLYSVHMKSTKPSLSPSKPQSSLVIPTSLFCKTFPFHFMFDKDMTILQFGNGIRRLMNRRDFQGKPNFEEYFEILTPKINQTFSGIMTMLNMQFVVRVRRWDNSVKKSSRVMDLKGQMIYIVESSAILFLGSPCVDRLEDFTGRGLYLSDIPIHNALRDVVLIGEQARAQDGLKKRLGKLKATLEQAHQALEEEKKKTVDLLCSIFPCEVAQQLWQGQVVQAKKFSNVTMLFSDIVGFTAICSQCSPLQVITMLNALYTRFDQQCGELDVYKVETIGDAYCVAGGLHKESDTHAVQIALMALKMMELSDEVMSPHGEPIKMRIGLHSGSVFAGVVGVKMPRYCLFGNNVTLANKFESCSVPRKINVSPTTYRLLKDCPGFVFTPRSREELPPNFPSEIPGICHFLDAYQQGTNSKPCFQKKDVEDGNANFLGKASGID
T1 sequence (Q02153 1-619): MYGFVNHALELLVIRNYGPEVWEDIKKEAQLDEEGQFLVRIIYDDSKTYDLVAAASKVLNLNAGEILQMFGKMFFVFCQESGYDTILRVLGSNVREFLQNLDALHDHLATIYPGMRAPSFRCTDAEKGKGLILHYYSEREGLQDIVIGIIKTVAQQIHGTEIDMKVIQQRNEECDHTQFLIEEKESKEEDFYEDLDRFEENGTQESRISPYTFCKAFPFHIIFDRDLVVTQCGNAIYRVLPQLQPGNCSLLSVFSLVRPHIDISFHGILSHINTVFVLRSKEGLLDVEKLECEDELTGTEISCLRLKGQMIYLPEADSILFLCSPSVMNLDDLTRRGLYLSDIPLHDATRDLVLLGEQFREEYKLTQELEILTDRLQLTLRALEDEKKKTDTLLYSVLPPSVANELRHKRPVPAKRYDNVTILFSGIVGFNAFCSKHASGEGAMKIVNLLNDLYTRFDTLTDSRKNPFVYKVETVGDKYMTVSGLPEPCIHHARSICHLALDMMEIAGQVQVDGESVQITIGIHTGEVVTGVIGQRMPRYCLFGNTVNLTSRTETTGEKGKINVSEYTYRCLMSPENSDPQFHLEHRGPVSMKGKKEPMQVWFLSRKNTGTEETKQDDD
Test: CHO cellular assay (cGMP production, HTRF)
Format: cell-based
Conditions: CHO K1 clone 8E10 overexpressing human sGC, Cisbio HTRF, 1 h room temperature, 1 mM IBMX, 20 uM ODQ, minimum quantification limit 0.5 nM
Description: Chinese hamster ovary (CHO) cells overexpressing soluble guanylate cyclase were generated to test the effect of sGC activators in a cellular context. Human cDNAs for GUCYA3 (RefSeq: NM_000856.3) and GUCYB3 (RefSeq: NM_000857.1) were amplified by PCR from a HUVEC (Human Umbilical Vein Endothelial Cells) cDNA library and cloned into mammalian expression vectors. CHO K1 cells (ATCC CCL-61) were transfected using Lipofectamine 2000 following manufacturer's instructions and stably expressing clones were identified by antibiotic selection. CHO GUCY clone 8E10 was used for subsequent experiments.
Cells were seeded at a density of 3000 cells/well in white 384-well proxyplates (Perkin Elmer) and incubated overnight, then the medium was removed and cells were washed with assay buffer (HBSS, 0.1% BSA, 1 mM IBMX, 20 uM ODQ). sGC activators were serially diluted in DMSO, then diluted in assay buffer prior to adding to cells (10 ul/well, final DMSO concentration 0.5%). Cells were incubated with compounds for 1 h room temperature, then assayed for cGMP production using Cisbio cGMP HTRF kit (62GM2PEC) according to manufacturer's instructions.
The EC50s are calculated based on the amount of cGMP interpolated from the standard curve, using a 4-parameter sigmoidal dose-response.

Compound	EC50
CCc1c(C)sc(-c2cccc(-n3ncc(C(=O)O)c3C(F)(F)F)n2)c1COc1ccc(C2CCN(CC(F)(F)F)CC2)cc1C [Example 6-18, 1-(6-(4-Ethyl-5-methyl-3-((2-methyl-4-(1-(2,2,2-trifluoroethyl)piperidin-4-yl)phenoxy)methyl)thiophen-2-yl)pyridin-2-yl)-5-(trifluoromethyl)-1H-pyrazole-4-carboxylic acid]	2.4 nM
CCc1cc(OCc2cc(C)sc2-c2cccc(-n3ncc(C(=O)O)c3C(F)(F)F)n2)ccc1C1CCN(C(=O)CC2CC2)CC1 [Example 12-4, 1-(6-(3-((4-(1-(2-Cyclopropylacetyl)piperidin-4-yl)-3-ethylphenoxy)methyl)-5-methylthiophen-2-yl)pyridin-2-yl)-5-(trifluoromethyl)-1H-pyrazole-4-carboxylic acid]	≤ 0.5 nM
CCc1csc(-c2cccc(-n3ncc(C(=O)O)c3C(F)(F)F)n2)c1COc1ccc(C2CCN(CC(F)(F)F)CC2)cc1C [Example 18-6, 1-(6-(4-Ethyl-3-((2-methyl-4-(1-(2,2,2-trifluoroethyl)piperidin-4-yl)phenoxy)methyl)thiophen-2-yl)pyridin-2-yl)-5-(trifluoromethyl)-1H-pyrazole-4-carboxylic acid]	18 nM
Cc1cc(COc2ccc(C3CCN(C(=O)C4CC4)CC3)c(C3CC3)c2)c(-c2cccc(-n3ncc(C(=O)O)c3C(F)(F)F)n2)s1 [Example 35-12, 1-(6-(3-((4-(1-(Cyclopropanecarbonyl)piperidin-4-yl)-3-cyclopropylphenoxy)methyl)-5-methylthiophen-2-yl)pyridin-2-yl)-5-(trifluoromethyl)-1H-pyrazole-4-carboxylic acid]	1 nM
O=C(O)c1cnn(-c2cccc(-c3sccc3COc3ccc(C4CCN(C(=O)C5CC5)CC4)cn3)n2)c1C(F)(F)F [Example 6-19, 1-(6-(3-(((5-(1-(Cyclopropanecarbonyl)piperidin-4-yl)pyridin-2-yl)oxy)methyl)thiophen-2-yl)pyridin-2-yl)-5-(trifluoromethyl)-1H-pyrazole-4-carboxylic acid]	2 nM
Cc1cc(COc2ccc(C3CCN(C(=O)C4CC4)CC3)c(F)c2)c(-c2cccc(-n3ncc(C(=O)O)c3C(F)(F)F)n2)s1 [Example 6-14, 1-(6-(3-((4-(1-(Cyclopropanecarbonyl)piperidin-4-yl)-3-fluorophenoxy)methyl)-5-methylthiophen-2-yl)pyridin-2-yl)-5-(trifluoromethyl)-1H-pyrazole-4-carboxylic acid]	3 nM
CCc1cc(OCc2cc(C)sc2-c2cccc(-n3ncc(C(=O)O)c3C(F)(F)F)n2)ccc1C1CCN(C(=O)CO)CC1 [Example 12-11, 1-(6-(3-((3-Ethyl-4-(1-(2-hydroxyacetyl)piperidin-4-yl)phenoxy)methyl)-5-methylthiophen-2-yl)pyridin-2-yl)-5-(trifluoromethyl)-1H-pyrazole-4-carboxylic acid]	36 nM
Cc1cc(COc2ccc(C3CCN(CC(F)(F)F)CC3)cc2C)c(-c2cccc(-n3ncc(C(=O)O)c3C(F)(F)F)n2)s1 [Example 6-16, 1-(6-(5-Methyl-3-((2-methyl-4-(1-(2,2,2-trifluoroethyl)piperidin-4-yl)phenoxy)methyl)thiophen-2-yl)pyridin-2-yl)-5-(trifluoromethyl)-1H-pyrazole-4-carboxylic acid]	6.3 nM
Cc1cc(C2CCN(C(=O)C3COC3)CC2)ccc1OCc1ccsc1-c1cccc(-n2ncc(C(=O)O)c2C(F)(F)F)n1 [Example 12-7, 1-(6-(3-((2-Methyl-4-(1-(oxetane-3-carbonyl)piperidin-4-yl)phenoxy)methyl)thiophen-2-yl)pyridin-2-yl)-5-(trifluoromethyl)-1H-pyrazole-4-carboxylic acid]	7.5 nM
CCc1cc(OCc2cc(C)sc2-c2cccc(-n3ncc(C(=O)O)c3C)n2)ccc1C1CCN(C(=O)N(C)C)CC1 [Example 35-8, 1-(6-(3-((4-(1-(Dimethylcarbamoyl)piperidin-4-yl)-3-ethylphenoxy)methyl)-5-methylthiophen-2-yl)pyridin-2-yl)-5-methyl-1H-pyrazole-4-carboxylic acid]	≤ 0.5 nM
CCc1cc(OCc2cc(C)sc2-c2cccc(-n3ncc(C(=O)O)c3C)n2)ccc1C1CCN(C(=O)CC2CC2)CC1 [Example 12-8, 1-(6-(3-((4-(1-(2-Cyclopropylacetyl)piperidin-4-yl)-3-ethylphenoxy)methyl)-5-methylthiophen-2-yl)pyridin-2-yl)-5-methyl-1H-pyrazole-4-carboxylic acid]	4.4 nM and 1 nM
Cc1cc(C2CCN(C(=O)C3CC3)CC2)ccc1OCc1ccsc1-c1cccc(-n2ncc(C(=O)O)c2C(F)(F)F)c1 [Example 6-1, 1-(3-(3-((4-(1-(Cyclopropanecarbonyl)piperidin-4-yl)-2-methylphenoxy)methyl)thiophen-2-yl)phenyl)-5-(trifluoromethyl)-1H-pyrazole-4-carboxylic acid]	1 nM
CCCc1cc(COc2ccc(C3CCN(C(=O)CC)CC3)cc2C)c(-c2cccc(-n3ncc(C(=O)O)c3C(F)(F)F)n2)s1 [Example 35-3, 1-(6-(3-((2-Methyl-4-(1-propionylpiperidin-4-yl)phenoxy)methyl)-5-propylthiophen-2-yl)pyridin-2-yl)-5-(trifluoromethyl)-1H-pyrazole-4-carboxylic acid]	195 nM
Cc1cc(C2CCN(CC(F)(F)F)CC2)ccc1OCc1c(C)csc1-c1cccc(-n2ncc(C(=O)O)c2C(F)(F)F)n1 [Example 10-9, 1-(6-(4-methyl-3-((2-methyl-4-(1-(2,2,2-trifluoroethyl)piperidin-4-yl)phenoxy)methyl)thiophen-2-yl)pyridin-2-yl)-5-(trifluoromethyl)-1H-pyrazole-4-carboxylic acid]	57 nM
CCC(=O)N1CCC(c2ccc(COc3ccsc3-c3cccc(-n4ncc(C(=O)O)c4C(F)(F)F)n3)cc2)CC1 [Example 31, 1-(6-(3-((4-(1-Propionylpiperidin-4-yl)benzyl)oxy)thiophen-2-yl)pyridin-2-yl)-5-(trifluoromethyl)-1H-pyrazole-4-carboxylic acid]	13 nM
Cc1cc(CCc2ccc(C3CCN(C(=O)OC(C)(C)C)CC3)cc2C)c(-c2cccc(-n3ncc(C(=O)O)c3C(F)(F)F)n2)s1 [Example 46, 1-(6-(3-(4-(1-(tert-Butoxycarbonyl)piperidin-4-yl)-2-methylphenethyl)-5-methylthiophen-2-yl)pyridin-2-yl)-5-(trifluoromethyl)-1H-pyrazole-4-carboxylic acid]	3 nM
CCc1cc(OCc2ccsc2-c2cccc(-n3ncc(C(=O)O)c3CC)n2)ccc1C1CCN(C(=O)C2CC2)CC1 [Example 10-2, 1-(6-(3-((4-(1-(Cyclopropanecarbonyl)piperidin-4-yl)-3-ethylphenoxy)methyl)thiophen-2-yl)pyridin-2-yl)-5-ethyl-1H-pyrazole-4-carboxylic acid]	≤ 0.5 nM
Cc1cc(COc2ccc(C3CCN(C(=O)C4CC4)CC3)cc2C)c(-c2cccc(-n3ncc(C(=O)O)c3C)n2)s1 [Example 10-3, 1-(6-(3-((4-(1-(Cyclopropanecarbonyl)piperidin-4-yl)-2-methylphenoxy)methyl)-5-methylthiophen-2-yl)pyridin-2-yl)-5-methyl-1H-pyrazole-4-carboxylic acid]	≤ 0.5 nM
